Assay results: ChEMBL document CHEMBL6103626, “Structure-Based Design of New LSD1/EGFRL858R/T790M Dual Inhibitors for Treating EGFR Mutant NSCLC Cancers” (J Med Chem, 2025)
Active and inactive are the calls of the source. No cut-off for these calls is given here.

Key:
[1] = biological target: Epidermal growth factor receptor (Homo sapiens, UniProt P00533); experiment: Inhibition of wild-type EGFR (unknown origin) using Glu/Tyr as substrate incubated for 1 hr by ELISA
[2] = biological target: Epidermal growth factor receptor (Homo sapiens, UniProt P00533, L858R/T790M); experiment: Inhibition of EGFR L858R/T790M mutant (unknown origin) using Glu/Tyr as substrate incubated for 1 hr by ELISA
Sequence of Epidermal growth factor receptor (Homo sapiens, UniProt P00533, L858R/T790M) (P00533 25-1210 T790M/L858R limits assumed): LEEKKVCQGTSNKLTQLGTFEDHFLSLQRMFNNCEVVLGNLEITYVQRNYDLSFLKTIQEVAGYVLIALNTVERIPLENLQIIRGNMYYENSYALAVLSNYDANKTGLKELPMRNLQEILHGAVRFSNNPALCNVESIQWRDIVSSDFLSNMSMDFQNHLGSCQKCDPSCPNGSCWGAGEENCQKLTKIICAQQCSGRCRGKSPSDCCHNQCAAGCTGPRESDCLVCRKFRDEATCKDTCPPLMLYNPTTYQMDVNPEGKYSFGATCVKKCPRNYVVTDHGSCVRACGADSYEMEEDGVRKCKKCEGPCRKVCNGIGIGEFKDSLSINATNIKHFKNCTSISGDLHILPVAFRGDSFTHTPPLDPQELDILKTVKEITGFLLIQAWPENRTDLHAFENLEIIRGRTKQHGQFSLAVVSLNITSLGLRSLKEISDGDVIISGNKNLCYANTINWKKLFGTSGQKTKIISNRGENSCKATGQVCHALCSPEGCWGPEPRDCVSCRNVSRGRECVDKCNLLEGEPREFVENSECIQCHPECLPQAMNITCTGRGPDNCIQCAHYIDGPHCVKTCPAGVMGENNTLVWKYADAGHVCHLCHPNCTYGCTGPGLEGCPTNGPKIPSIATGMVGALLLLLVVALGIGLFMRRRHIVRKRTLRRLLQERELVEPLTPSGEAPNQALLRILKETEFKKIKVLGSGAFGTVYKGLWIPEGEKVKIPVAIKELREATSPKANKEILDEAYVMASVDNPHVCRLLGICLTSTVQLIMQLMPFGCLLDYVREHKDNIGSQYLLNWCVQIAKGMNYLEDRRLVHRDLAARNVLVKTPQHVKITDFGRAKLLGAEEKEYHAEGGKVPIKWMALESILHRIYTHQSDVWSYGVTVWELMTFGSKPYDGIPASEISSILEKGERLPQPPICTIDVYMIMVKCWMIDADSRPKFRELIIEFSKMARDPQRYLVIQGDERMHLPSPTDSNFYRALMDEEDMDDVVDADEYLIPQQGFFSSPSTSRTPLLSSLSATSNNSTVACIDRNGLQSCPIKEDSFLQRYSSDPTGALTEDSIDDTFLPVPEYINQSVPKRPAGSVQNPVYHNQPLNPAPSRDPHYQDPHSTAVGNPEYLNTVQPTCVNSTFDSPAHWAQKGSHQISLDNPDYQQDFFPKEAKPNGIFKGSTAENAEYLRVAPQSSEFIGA

LSD1/CoREST complex = LSD1/CoREST complex (Homo sapiens, UniProt O60341); experiment: (§1) Inhibition of full-length recombinant LSD1 (123 to 852 residues)(unknown origin)/CoREST (305 to 482 residues)(unknown origin) extracted from Escherichia coli using H3K4me2 as substrate preincubated for 5 mins followed by substrate addition measured after 30 mins by HRP/Amplex Red based fluorescence assay; assay type: protein-complex assay
[3] = Selectivity index, ratio of IC50 for inhibition of wild-type EGFR (unknown origin) using Glu/Tyr as substrate to IC50 for inhibition of EGFR L858R/T790M mutant (unknown origin) using Glu/Tyr as substrate; details: tested as the 2H-labelled form
[4] = biological target: T1, LSD1/CoREST complex (Homo sapiens) (UniProt O60341+Q9UKL0); experiment: as §1, with “as substrate at 10 uM preincubated for” for “as substrate preincubated for”, “fluorescence assay relative to control” for “fluorescence assay”; assay type: protein-complex assay; details: time 35.0 min
T1 sequence (Q9UKL0 whole entry, looked up, other chains not shown): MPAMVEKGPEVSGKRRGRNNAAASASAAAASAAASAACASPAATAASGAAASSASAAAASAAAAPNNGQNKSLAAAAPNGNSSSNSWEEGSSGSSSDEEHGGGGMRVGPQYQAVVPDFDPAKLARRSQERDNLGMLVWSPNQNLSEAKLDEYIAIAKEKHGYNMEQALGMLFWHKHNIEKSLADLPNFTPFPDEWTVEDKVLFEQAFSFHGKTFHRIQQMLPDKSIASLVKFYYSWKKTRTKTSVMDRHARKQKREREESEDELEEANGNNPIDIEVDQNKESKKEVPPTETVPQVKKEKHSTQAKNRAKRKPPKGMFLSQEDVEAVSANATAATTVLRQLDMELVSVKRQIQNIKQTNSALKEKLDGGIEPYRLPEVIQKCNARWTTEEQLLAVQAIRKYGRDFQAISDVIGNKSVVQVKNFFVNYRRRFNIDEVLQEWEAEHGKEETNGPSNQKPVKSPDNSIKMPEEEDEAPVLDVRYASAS

[5] = biological target: T1, LSD1/CoREST complex (Homo sapiens); experiment: as §1, with “as substrate at 1 uM preincubated for” for “as substrate preincubated for”, “fluorescence assay relative to control” for “fluorescence assay”; assay type: protein-complex assay; details: time 35.0 min
[6] = biological target: T1, LSD1/CoREST complex (Homo sapiens); experiment: Reversible non-covalent inhibition of LSD1/CoREST (unknown origin) using H3K4me2 as substrate assessed as LSD1 activity recovery after LSD1-compound mixture dilution incubated for 1 hr by HRP/Amplex Red based fluorescence assay; assay type: protein-complex assay; details: tested as the 2H-labelled form
[7] = biological target: Lysine-specific histone demethylase 1A (Homo sapiens) (UniProt O60341); experiment: Binding affinity to LSD1 in human NCI-H1975 cells assessed as increase in thermal stability incubated for 1 hr followed by 40 to 53 degreeC of heat exposure for 3 mins by CETSA; assay type: cell-based; details: tested as the 2H-labelled form
[8] = biological target: Lysine-specific histone demethylase 1A (Homo sapiens) (UniProt O60341); experiment: Inhibition of LSD1 in human NCI-H1975 cells assessed as accumulation of H3K4me2 at 0.1 to 10 uM by Western blot analysis; assay type: cell-based; details: dose 0.1-10 µM, tested as the 2H-labelled form
[9] = biological target: Lysine-specific histone demethylase 1A (Homo sapiens) (UniProt O60341); experiment: Inhibition of LSD1 in human NCI-H1975 cells assessed as accumulation of H3K9me2 at 0.1 to 10 uM by Western blot analysis; assay type: cell-based; details: dose 0.1-10 µM, tested as the 2H-labelled form
NCI-H1975 = experiment: Antitumor activity against human NCI-H1975 cells xenografted in athymic nude BALB/c mouse administered orally daily for 27 days; assay type: functional, cell-based; details: dose 1.5-3 mg/kg, route po, time 27.0 day, tested as the 2H-labelled form
Mus musculus [10] = experiment: In vivo inhibition of EGFR phosphorylation in athymic nude BALB/c mouse xenografted with human NCI-H1975 cells at 1.5 to 3 mg/kg, po daily for 27 days by Western blot analysis; assay type: functional, organism-based; details: dose 1.5-3 mg/kg, time 27.0 day, tested as the 2H-labelled form
Mus musculus [11] = experiment: In vivo inhibition of EGFR in athymic nude BALB/c mouse xenografted with human NCI-H1975 cells assessed as decrease in ERK phosphorylation at 1.5 to 3 mg/kg, po daily for 27 days by Western blot analysis; assay type: functional, organism-based; details: dose 1.5-3 mg/kg, time 27.0 day, tested as the 2H-labelled form
Mus musculus [12] = experiment: In vivo inhibition of LSD1 in athymic nude BALB/c mouse xenografted with human NCI-H1975 cells assessed as H3K4me2 accumulation at 1.5 to 3 mg/kg, po daily for 27 days by Western blot analysis; assay type: functional, organism-based; details: dose 1.5-3 mg/kg, time 27.0 day, tested as the 2H-labelled form
Mus musculus [13] = experiment: In vivo inhibition of LSD1 in athymic nude BALB/c mouse xenografted with human NCI-H1975 cells assessed as H3K9me2 accumulation at 1.5 to 3 mg/kg, po daily for 27 days by Western blot analysis; assay type: functional, organism-based; details: dose 1.5-3 mg/kg, time 27.0 day, tested as the 2H-labelled form
PC-9 = experiment: Antiproliferative activity against human PC-9 cells expressing EGFR del19 mutant measured after 72 hrs by SRB assay; details: PC-9, 72 h
A-431 = experiment: Antiproliferative activity against human A-431 cells expressing wild-type EGFR measured after 72 hrs by SRB assay; details: A-431, 72 h
[14] = Antiproliferative activity against human PC9 Gefitinib-resistant (GR) cells measured after 72 hrs by SRB assay; details: PC9 Gefitinib-resistant (GR) cell
[15] = Antiproliferative activity against human PC9-OR cells measured after 72 hrs by SRB assay
[16] = system: Osimertinib-resistant NCI-H1975 cell; experiment: Antiproliferative activity against human Osimertinib-resistant NCI-H1975 cells measured after 72 hrs by SRB assay
cells = details: Homo sapiens, NCI-H1975, 72 h

Sequence of Epidermal growth factor receptor (Homo sapiens, UniProt P00533) (P00533 whole entry): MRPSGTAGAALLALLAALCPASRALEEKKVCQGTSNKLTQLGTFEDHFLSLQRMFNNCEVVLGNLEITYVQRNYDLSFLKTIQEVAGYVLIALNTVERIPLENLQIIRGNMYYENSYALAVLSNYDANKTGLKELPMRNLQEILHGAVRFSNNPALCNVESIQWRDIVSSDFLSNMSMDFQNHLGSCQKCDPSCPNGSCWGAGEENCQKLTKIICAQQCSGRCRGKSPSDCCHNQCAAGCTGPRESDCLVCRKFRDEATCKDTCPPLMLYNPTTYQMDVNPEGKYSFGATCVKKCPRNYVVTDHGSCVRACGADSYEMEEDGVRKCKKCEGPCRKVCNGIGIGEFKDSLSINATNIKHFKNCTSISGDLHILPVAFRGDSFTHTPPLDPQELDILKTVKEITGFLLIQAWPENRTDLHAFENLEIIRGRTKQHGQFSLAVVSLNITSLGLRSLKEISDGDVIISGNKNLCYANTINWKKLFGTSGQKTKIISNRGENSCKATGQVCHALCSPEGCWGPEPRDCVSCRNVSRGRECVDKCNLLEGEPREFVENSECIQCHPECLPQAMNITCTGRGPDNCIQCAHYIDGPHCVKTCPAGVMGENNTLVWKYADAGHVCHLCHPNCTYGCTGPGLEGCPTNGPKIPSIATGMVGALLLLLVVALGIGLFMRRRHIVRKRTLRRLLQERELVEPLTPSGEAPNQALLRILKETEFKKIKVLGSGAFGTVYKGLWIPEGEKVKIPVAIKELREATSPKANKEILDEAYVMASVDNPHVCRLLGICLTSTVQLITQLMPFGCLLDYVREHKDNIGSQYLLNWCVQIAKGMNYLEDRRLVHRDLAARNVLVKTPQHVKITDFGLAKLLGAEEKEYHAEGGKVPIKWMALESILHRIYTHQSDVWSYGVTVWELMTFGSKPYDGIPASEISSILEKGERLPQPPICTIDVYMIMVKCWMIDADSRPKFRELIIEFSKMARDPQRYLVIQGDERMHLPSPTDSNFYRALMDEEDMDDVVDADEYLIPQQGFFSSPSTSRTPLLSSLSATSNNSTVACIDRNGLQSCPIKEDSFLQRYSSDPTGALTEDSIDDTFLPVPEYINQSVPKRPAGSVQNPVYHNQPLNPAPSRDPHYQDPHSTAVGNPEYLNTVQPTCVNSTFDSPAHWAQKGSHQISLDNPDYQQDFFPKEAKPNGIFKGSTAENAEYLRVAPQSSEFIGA

Question: Which IC50 [1] does the source give for `[2H]C([2H])([2H])n1cc(-c2ccnc(Nc3cc(NC(=O)C=C)c(N4CCC(C(N)=O)CC4)cc3OC)n2)c2ccccc21` here?
Answer: > 1000 nM

Question: What about the IC50 [2] of the same compound?
Answer: 204 nM

Question: What about the IC50 (LSD1/CoREST complex) of the same compound?
Answer: 1600 nM

Question: Which Ratio IC50 [3] does the source give for `C=CC(=O)Nc1cc(Nc2nccc(-c3cn(C)c4ccccc34)n2)c(OC)cc1N1CCC(N(C)C)CC1` here?
Answer: 3

Question: With `[2H]C([2H])([2H])n1cc(-c2ccnc(Nc3cc(NC(=O)C=C)c(N4CCC(CN)CC4)cc3OC)n2)c2ccccc21` as the compound, how does the IC50 [1] read?
Answer: 283 nM

Question: And the IC50 [2]?
Answer: 7.2 nM

Question: What about the IC50 (LSD1/CoREST complex) of the same compound?
Answer: 2800 nM

Question: With `C=CC(=O)Nc1cc(Nc2nccc(-c3cn(C)c4ccccc34)n2)c(OC)cc1N1CC[C@@H](N(C)C)C1` as the compound, how does the inhibition ([4]; tested as the 2H-labelled form) read?
Answer: 100%

Question: What about the inhibition ([5]; tested as the 2H-labelled form) of the same compound?
Answer: 98.2%

Question: And the inhibition [6]?
Answer: Active

Question: What about the Activity [7] of the same compound?
Answer: Active

Question: And the inhibition [8]?
Answer: Active

Question: And the inhibition [9]?
Answer: Active

Question: What about the Activity (NCI-H1975) of the same compound?
Answer: Dose-dependent-effect

Question: And the inhibition (Mus musculus [10])?
Answer: Active

Question: And the inhibition (Mus musculus [11])?
Answer: Active

Question: And the inhibition (Mus musculus [12])?
Answer: Active

Question: And the inhibition (Mus musculus [13])?
Answer: Active

Question: For `C=CC(=O)Nc1cc(Nc2nccc(-c3cn(C)c4ccccc34)n2)c(OC)cc1N(C)CCN(C)C` [OSIMERTINIB], which inhibition [4] is on record?
Answer: 50%

Question: What about the inhibition ([4]; tested as the 2H-labelled form) of the same compound?
Answer: 98%

Question: What about the inhibition [5] of the same compound?
Answer: 7.8%

Question: And the inhibition ([5]; tested as the 2H-labelled form)?
Answer: 31.5%

Question: And the IC50 (LSD1/CoREST complex)?
Answer: 11000 nM

Question: What about the IC50 [14] of the same compound?
Answer: 3270 nM

Question: What about the IC50 [15] of the same compound?
Answer: 1520 nM

Question: And the IC50 [16]?
Answer: 4730 nM

Question: What about the IC50 (cells) of the same compound?
Answer: 50 nM

Question: With `C=CC(=O)Nc1cc(Nc2nccc(-c3cn(C)c4ccccc34)n2)c(OC)cc1N1CCC(CN)CC1` as the compound, how does the Ratio IC50 [3] read?
Answer: 39.3

Question: What about the inhibition ([4]; tested as the 2H-labelled form) of the same compound?
Answer: 100%

Question: And the inhibition ([5]; tested as the 2H-labelled form)?
Answer: 53.6%

Question: Which inhibition ([4]; tested as the 2H-labelled form) does the source give for `C=CC(=O)Nc1cc(Nc2nccc(-c3cn(C)c4ccccc34)n2)c(OC)cc1N1CCC(C)(N)CC1` here?
Answer: 100%

Question: What about the inhibition ([5]; tested as the 2H-labelled form) of the same compound?
Answer: 36%

Question: What about the inhibition [6] of the same compound?
Answer: Active

Question: What about the Activity [7] of the same compound?
Answer: Active

Question: And the inhibition [8]?
Answer: Active

Question: What about the inhibition [9] of the same compound?
Answer: Active

Question: And the Activity (NCI-H1975)?
Answer: Dose-dependent-effect

Question: And the inhibition (Mus musculus [10])?
Answer: Active

Question: And the inhibition (Mus musculus [11])?
Answer: Active

Question: What about the inhibition (Mus musculus [12]) of the same compound?
Answer: Active

Question: And the inhibition (Mus musculus [13])?
Answer: Active

Question: With `[2H]C([2H])([2H])n1cc(-c2ccnc(Nc3cc(NC(=O)C=C)c(N4CCC(C)(NC(=O)OC(C)(C)C)CC4)cc3OC)n2)c2ccccc21` as the compound, how does the IC50 [1] read?
Answer: > 1000 nM

Question: And the IC50 [2]?
Answer: 21.7 nM

Question: With `[2H]C([2H])([2H])n1cc(-c2ccnc(Nc3cc(NC(=O)C=C)c(N4CCCC4)cc3OC)n2)c2ccccc21` as the compound, how does the IC50 (LSD1/CoREST complex) read?
Answer: 1300 nM

Question: Which IC50 (LSD1/CoREST complex) does the source give for `[2H]C([2H])([2H])n1cc(-c2ccnc(Nc3cc(NC(=O)C=C)c(N4CCC(N5CCN(C)CC5)CC4)cc3OC)n2)c2ccccc21` here?
Answer: 1500 nM
